The text below walks through data of patent US20070135514A1, “Methods for the identification of agents for the treatment of seizures, neurological diseases, endocrinopathies and hormonal diseases” (priority 2002, published 2007).

Where two headings read alike, the source gives them in different places.

The target of assay [1] is T1, hSV2A (Homo sapiens, UniProt Q7L0J3).
T1 construct: expressed in transfected cells; host or cells: COS-7 cells, transient transfection (pDEST 12.2 Gateway vector, CMV promoter)
Put plainly: [3H]ucb 30889 binding to hSV2A expressed in COS-7 cells. Conditions: for competition with [3H]ucb 30889 for binding to SV2A: concentrations up to 100 μM.

The target in assay [2] is T2, levetiracetam binding site (LBS) (Rattus norvegicus, UniProt Q02563).
T2 construct: host or cells: crude rat brain membranes (Noyer et al. 1995; Gillard et al. 2003)
Particulars: cited from earlier work.

In assay [3] the test system is audiogenic seizures. Particulars: in vivo; cited from earlier work.
In assay [4] the test system is refractory partial seizures. Conditions: adjunctive therapy; cited from earlier work.
The target in assay [5] is T2, levetiracetam binding site (LBS). Put plainly: [3H]ucb 30889 binding to crude rat brain membranes (kinetic, saturation, competition). Here is the method: (§1) Binding experiments were conducted on crude rat brain membranes at 4° C. as described in Noyer et al. (Euro. J. Pharmacol. 286:137-146 (1995)). Incubation time for equilibrium studies was 120 min. For kinetic and competition studies, [^3H]ucb 30889 (30 Ci/mmol) was used at a concentration of 1.3 nM in 0.5 ml of a Tris-HCl (pH 7.4) buffer containing 2 mM Mg^2+. Localization of the LBS in brain substructures was assessed by autoradiography on 25 μm thick slices incubated under similar conditions. Slides were then washed twice for 10 min at 4° C. in 50 mM Tris-HCl (pH 7.4) containing 0.5% BSA, dried and exposed for 3 weeks to [^3H]Hyperfilm at −20° C. Non-specific binding (NSB) was determined by the inclusion of 1 mM LEV during the incubation period.

In assay [6] the test system is LBS in peripheral tissues. Put plainly: [3H]ucb 30889 specific binding in peripheral tissues. Conditions: 150 μg protein/assay, 1.3 nM radioligand; detection limit Bmax 200 fmol/mg protein. As to the method:
as §1
The limit of detection under the experimental conditions (150 μg of protein/assay and 1.3 nM of radioligand) was a Bmax of 200 fmol/mg protein.

Assay [7] concerns Rat cerebellar granule neurons. Put plainly: [3H]ucb 30889 binding in rat cerebellar granule neurons. Here is the method: (§2) To identify and characterize the LBS in situ, [^3H]ucb 30889 was used to map the LBS within the brain and to study both its cellular and subcellular distribution. For rat brain autoradiography, 25 μm slices were incubated with 1.3 nM [^3H]ucb 30889 for 120 min at 4° C. in 50 mM Tris-HCl buffer (pH 7.4). Binding assays with rat brain membranes and various neuronal cell lines were performed under similar conditions. […] For photolabeling, membranes were incubated with 40 nM [^3H]ucb 30889 for 120 min at 4° C. in the same buffer, followed by irradiation with UV-light for 30 min (Fuks et al., Eur. J. Pharmacol. 478:11-19 (2003)).

Assay [8] concerns Mouse cortical neurons. Put plainly: [3H]ucb 30889 binding in mouse cortical neurons. As to the method: as §2
Assay [9] concerns PC12. Put plainly: [3H]ucb 30889 binding in PC12 cells. Further details: species or system rat. As to the method: as §2
Assay [10] has as its system COS-7. Put plainly: [3H]ucb 30889 binding in untransfected COS-7 cells. Conditions: untransfected COS-7 cell line. Here is the method: as §2
In addition, a PC12 cell line subclone, PC12a, which is low in LBS, was used to establish a pool of PC12 cells expressing hSV2A under stable antibiotic selection.

Assay [11] addresses T3, hSV2B (Homo sapiens, UniProt Q7L1I2).
T3 construct: expressed in transfected cells; host or cells: COS-7 cells, transient expression
Put plainly: [3H]ucb 30889 binding to hSV2B expressed in COS-7 cells. Particulars: transient COS-7 system.

Assay [12] has as its target T4, hSV2C (Homo sapiens, UniProt Q496J9).
T4 construct: expressed in transfected cells; host or cells: COS-7 cells, transient expression
T4 sequence (Q496J9 1-727): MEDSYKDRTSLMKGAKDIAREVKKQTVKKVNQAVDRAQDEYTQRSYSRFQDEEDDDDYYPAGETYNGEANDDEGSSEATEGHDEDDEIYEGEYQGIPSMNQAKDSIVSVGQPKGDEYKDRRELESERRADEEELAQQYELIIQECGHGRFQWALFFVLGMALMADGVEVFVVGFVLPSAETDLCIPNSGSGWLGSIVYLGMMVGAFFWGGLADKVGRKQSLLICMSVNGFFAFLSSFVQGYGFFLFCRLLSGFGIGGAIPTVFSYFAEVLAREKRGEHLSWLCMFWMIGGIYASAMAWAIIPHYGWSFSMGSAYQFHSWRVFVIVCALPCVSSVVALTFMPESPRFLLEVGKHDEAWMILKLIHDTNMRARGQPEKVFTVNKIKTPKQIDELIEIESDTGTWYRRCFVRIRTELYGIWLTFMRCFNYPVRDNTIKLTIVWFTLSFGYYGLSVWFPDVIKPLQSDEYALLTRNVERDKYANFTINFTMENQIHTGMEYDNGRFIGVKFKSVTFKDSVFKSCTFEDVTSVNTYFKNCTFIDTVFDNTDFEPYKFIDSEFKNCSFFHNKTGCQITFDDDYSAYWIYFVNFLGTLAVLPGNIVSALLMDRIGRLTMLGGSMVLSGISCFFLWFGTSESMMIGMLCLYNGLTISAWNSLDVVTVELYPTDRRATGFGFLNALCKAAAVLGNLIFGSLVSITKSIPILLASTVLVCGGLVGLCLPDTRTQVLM
Put plainly: [3H]ucb 30889 binding to hSV2C expressed in COS-7 cells. Conditions: transient COS-7 system.

Assay [13] relates to PC12bs cells (LBS). Put plainly: Intact cell [3H]ucb 30889 binding in PC12bs cells. Further details: species or system rat. Conditions: identical conditions. As to the method:
In a binding experiment, specific binding was measured of [^3H]ucb 30889 to COS-7 cells that have either been transfected with SV2A-12.2, or as controls, a β-gal expressing vector, or cells that have not been transfected (FIG. 13). […] The cells were incubated at 4° C. for 2 hours, and then washed rapidly with ice-cold PBS. The cells were lysed on the plate, transferred to scintillation vials with scintillation fluid and counted for ^3H decay emission. […] In identical intact cell binding experiments using PC12bs cells, known to express the LBS, a 1.5 to 2-fold difference in CPM between the ‘hot’ and ‘hot+cold’ samples is typically seen, as compared to the 5-fold difference seen here.

The target of assay [14] is T5, SV2A in native membrane (Rattus norvegicus, UniProt Q02563).
T5 construct: from tissue
Put plainly: Scatchard analysis of [3H]ucb 30889 binding, native rat brain membrane.

Assay [15] deals with T6, soluble SV2A (Rattus norvegicus, UniProt Q02563).
T6 construct: from tissue; host or cells: supernatant of detergent-solubilised rat brain membranes
Put plainly: [3H]ucb 30889 binding to n-dodecyl-β-D-maltoside solubilized SV2A. Conditions: soluble protein in n-dodecyl-β-D-maltoside; read-out: KD (Scatchard analysis). Here is the method: The rat brain membranes were diluted in a solubilization buffer (Tris-HCl 20 mM pH 7.4, 0.25 M sucrose, protease inhibitors Complete Roche) containing n-dodecyl-β-D-maltoside 15 mM and incubated for two hours at 4° C. Subsequently, the solution was centrifuged at 4° C. for one hour at 100,000 g. The soluble SV2A was found in the supernatant as detected by western blot using anti-SV2A antibodies (FIG. 21A). The supernatants were incubated with [^3H]ucb 30889 as described. […] Thus, the binding properties of the soluble SV2A are similar to the membrane-bound native form indicative that the soluble protein maintains its native structural conformation in n-dodecyl-β-D-maltoside.

Where [16] appears, read: rat brain cortex, 4° C., fast component (25 to 50% of the sites).
The mark [17] stands for this setting: rat brain cortex, 4° C., slow component.

T2 sequence (Q02563 whole entry): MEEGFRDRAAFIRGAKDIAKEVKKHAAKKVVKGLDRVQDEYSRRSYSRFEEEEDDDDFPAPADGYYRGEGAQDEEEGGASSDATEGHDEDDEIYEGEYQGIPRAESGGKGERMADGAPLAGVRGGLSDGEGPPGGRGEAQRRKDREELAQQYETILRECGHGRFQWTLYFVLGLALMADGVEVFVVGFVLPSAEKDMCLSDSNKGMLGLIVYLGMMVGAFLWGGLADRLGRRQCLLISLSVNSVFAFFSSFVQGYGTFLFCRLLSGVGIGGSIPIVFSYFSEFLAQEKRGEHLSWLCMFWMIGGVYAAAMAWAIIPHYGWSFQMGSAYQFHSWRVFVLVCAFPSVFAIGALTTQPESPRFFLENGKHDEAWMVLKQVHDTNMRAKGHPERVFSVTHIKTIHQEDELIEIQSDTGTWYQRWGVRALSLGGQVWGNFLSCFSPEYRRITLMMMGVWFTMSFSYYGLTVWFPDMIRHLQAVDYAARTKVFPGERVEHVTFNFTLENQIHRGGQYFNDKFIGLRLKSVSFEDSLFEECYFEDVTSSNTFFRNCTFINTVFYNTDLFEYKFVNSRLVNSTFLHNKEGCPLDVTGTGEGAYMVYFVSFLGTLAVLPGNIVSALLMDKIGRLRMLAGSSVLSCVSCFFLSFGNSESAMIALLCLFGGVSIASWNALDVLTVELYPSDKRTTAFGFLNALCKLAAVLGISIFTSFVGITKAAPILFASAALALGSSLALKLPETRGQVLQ
T1 sequence (Q7L0J3 whole entry): as the sequence (Q02563 whole entry) above, with E53D, A62S, A71T, D144E, T154A, S440G, A482S, V572I, L634M counted along it
T3 sequence (Q7L1I2 whole entry): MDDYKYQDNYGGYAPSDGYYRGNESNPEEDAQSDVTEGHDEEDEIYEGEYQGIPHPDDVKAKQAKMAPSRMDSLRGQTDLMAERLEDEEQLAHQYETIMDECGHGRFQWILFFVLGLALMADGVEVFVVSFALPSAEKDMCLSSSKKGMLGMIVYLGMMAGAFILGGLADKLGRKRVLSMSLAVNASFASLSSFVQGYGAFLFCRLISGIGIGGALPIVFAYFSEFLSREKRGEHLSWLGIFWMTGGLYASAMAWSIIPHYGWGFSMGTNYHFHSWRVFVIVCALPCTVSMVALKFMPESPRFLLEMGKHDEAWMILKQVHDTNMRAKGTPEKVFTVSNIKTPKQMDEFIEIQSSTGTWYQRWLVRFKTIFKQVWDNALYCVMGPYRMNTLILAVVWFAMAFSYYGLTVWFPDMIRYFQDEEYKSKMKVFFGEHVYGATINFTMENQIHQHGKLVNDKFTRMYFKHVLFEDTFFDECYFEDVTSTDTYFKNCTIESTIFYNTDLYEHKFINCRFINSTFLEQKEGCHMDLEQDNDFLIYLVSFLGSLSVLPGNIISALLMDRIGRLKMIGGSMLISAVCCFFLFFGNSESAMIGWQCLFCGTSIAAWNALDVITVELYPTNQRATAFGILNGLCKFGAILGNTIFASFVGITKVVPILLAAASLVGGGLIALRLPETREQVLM
T6 sequence (Q02563 whole entry): as the sequence (Q02563 whole entry) above
T5 sequence (Q02563 whole entry): as above

Regarding `C=CC(N)CCC(=O)O` (stereo not drawn) [vigabatrin], the “competition with [3H]ucb 30889 for binding to SV2A” value (“competition” for short) in assay [1] is recorded as “None of the AEDs at concentrations up to 100 μM, competed”. The “displacement of LEV binding” value in assay [2] is on record as “do not displace LEV binding”.
In the case of `NS(=O)(=O)Cc1noc2ccccc12` [zonisamide], the “competition” value in assay [1] is “None of the AEDs at concentrations up to 100 μM, competed”. Moreover, the “displacement of LEV binding” value in assay [2] is reported as “do not displace LEV binding”.
Take `CCC1(C)CC(=O)NC1=O` (stereo not drawn) [ethosuximide]: the “competition” value in assay [1] is recorded as “None of the AEDs at concentrations up to 100 μM, competed”. Moreover, in assay [2], the “displacement of LEV binding” value is given as “competed with LEV”.
For `CC[C@@H](C(N)=O)N1CCCC1=O` [ucb L060], the “affinity to hSV2A compared with LEV” value in assay [1] (displacement of [3H]ucb 30889, COS-7) was “significantly less affinity”.
On to `Cc1ccsc1C(=CCCN1CCC[C@@H](C(=O)O)C1)c1sccc1C` [tiagabine], for which the “competition” value in assay [1] is reported as “None of the AEDs at concentrations up to 100 μM, competed”. Besides, in assay [2], the “displacement of LEV binding” value is recorded as “do not displace LEV binding”.
As for picrotoxin, the “displacement of LEV binding” value in [2] was “do not displace LEV binding”.
In the case of `O=C1NC(=O)C(c2ccccc2)(c2ccccc2)N1` [phenytoin], in [1], the “competition” value is on record as “None of the AEDs at concentrations up to 100 μM, competed”. For the same compound, in assay [2], the “displacement of LEV binding” value is “do not displace LEV binding”.
Take `C1CCc2nnnn2CC1` [pentylenetetrazole]: the “displacement of LEV binding” value in [2] is recorded as “competed with LEV”.
Turning to `NC(=O)OCC(COC(N)=O)c1ccccc1` [felbamate], the “competition” value in assay [1] was “None of the AEDs at concentrations up to 100 μM, competed”. Moreover, the “displacement of LEV binding” value in [2] is “do not displace LEV binding”.
As to `CC[C@@H](C(N)=O)N1CCCC1=O` [levetiracetam, (S)-α-ethyl-2-oxo-1-pyrrolidine acetamide], the “affinity for the binding site” value in assay [2] (listed as LEV) is reported as “modest affinity”; in assay [2] (listed as [^3H]LEV), “only micromolar affinity”. In addition, the “suppression of seizures in the audiogenic-susceptible mouse” value in [3] is given as “unexpected potent ability”. Further, the “control of refractory partial seizures in adults” value in assay [4] was “both effective and well tolerated”.
For the compound `COc1ccc(C(=O)N2CCCC2=O)cc1` [aniracetam], the “displacement of LEV binding” value in [2] is recorded as “displaced LEV binding”.
For the compound `NC(=O)N1c2ccccc2C=Cc2ccccc21` [carbamazepine], the “competition” value in assay [1] is reported as “None of the AEDs at concentrations up to 100 μM, competed”. Further, the “displacement of LEV binding” value in assay [2] is listed as “do not displace LEV binding”.
Turning to `CC[C@@H](C(N)=O)N1CC(c2cccc(N=[N+]=[N-])c2)CC1=O` (stereo partly drawn) [ucb 30889, (2S)-2-[4-(3-azidophenyl)-2-oxopyrrolidin-1-yl]butanamide], the “half-time for association, fast component” value in assay [5] (setting [16]) came to 3 ± 2 min. Besides, the “half-time for dissociation, fast component” value in assay [5] (setting [16]) was 4 ± 1 min. Moreover, the “half-time for association, slow component” value in assay [5] (setting [17]) is 47 ± 13 min. For the same compound, the “half-time for dissociation, slow component” value in [5] (setting [17]) turned out to be 61 ± 15 min. Also, in assay [5] (rat brain membranes, substance used as radioligand), the “Bmax (saturation binding)” value is 5054±704 fmol/mg protein. In assay [6], the “specific binding in peripheral tissues” value is on record as “could not be detected”. For the same compound, the Bmax was determined as 0.7 pmol/mg protein in [7], 1.4 pmol/mg protein in [8] and 1.4 pmol/mg in assay [9]. In addition, the Kd worked out at 59 nM in [7]; 34 nM in [8]; 40 nM in assay [9]; 30 nM in assay [14]; 82 nM in assay [15]. Also, the binding above background entry in assay [10], in [11] and in assay [12] was “no binding above background” each time. In addition, the “difference in CPM between 'hot' and 'hot+cold' samples” value in [1] (COS-7 transfected with SV2A-12.2, 1 nM radioligand ± 50 μM cold Levetiracetam, 4° C., 2 hours) was 5 fold; in assay [13], 1.5 to 2 fold.
Take `CCC1(C)CC(=O)NC(=O)C1` [bemegride]: in assay [2], the “displacement of LEV binding” value is listed as “competed with LEV”.
Regarding `CCCC(C)C1(CC)C(=O)NC(=O)NC1=O` (stereo not drawn) [pentobarbital], the “displacement of LEV binding” value in assay [2] was “competed with LEV”.
`O=C1CN=C(c2ccccc2Cl)c2cc([N+](=O)[O-])ccc2N1` [clonazepam]: the “displacement of LEV binding” value in assay [2] was “do not displace LEV binding”.
Take `NCC1(CC(=O)O)CCCCC1` [gabapentin]: the “competition” value in assay [1] is listed as “None of the AEDs at concentrations up to 100 μM, competed”. For the same compound, in assay [2], the “displacement of LEV binding” value was “do not displace LEV binding”.
On to `CCCC(CCC)C(=O)O` [valproate], for which, in assay [1], the “competition” value is listed as “None of the AEDs at concentrations up to 100 μM, competed”. For the same compound, in [2], the “displacement of LEV binding” value was “do not displace LEV binding”.

A word on the Kd: it is the free concentration of one partner at which half of the binding sites on the other are occupied at equilibrium, for simple one-to-one binding.
